Experimental data published in patent publication US20240417405A1, “Substituted Spiro Derivatives” (Janssen Pharmaceutica NV, priority 2021, published 2024).

Assays:
MOLM14 cells = test: Proliferation assay, spheroid-like growth, MOLM14 (MLL-AF9 rearranged); type: cell-based, human; conditions: Homo sapiens, MOLM-14, 192 h, 8 days, confluence as measure of spheroid size, read-out: spheroid assay_OneTime MOLM14 IC50
Experimental: The anti-proliferative effect of menin/MLL protein/protein interaction inhibitor test compounds was assessed in human leukemia cell lines. The cell line MOLM14 harbors a MLL translocation and expresses the MLL fusion proteins MLL-AF9, respectively, as well as the wildtype protein from the second allele. […] KO-52 was used as a control cell line containing two MLL (KMT2A) wildtype alleles in order to exclude compounds that display general cytotoxic effects.
MOLM14 cells were cultured in RPMI-1640 (Sigma Aldrich) supplemented with 10% heat-inactivated fetal bovine serum (HyClone), 2 mM L-glutamine (Sigma Aldrich) and 50 μg/ml gentamycin (Gibco). KO-52 cell lines were propagated in alpha-MEM (Sigma Aldrich) supplemented with 20% heat-inactivated fetal bovine serum (HyClone), 2 mM L-glutamine (Sigma Aldrich) and 50 μg/ml gentamycin (Gibco).
In order to assess the anti-proliferative effects, 200 MOLM14 cells, or 300 KO-52 cells were seeded in 200 μl media per well in 96-well round bottom, ultra-low attachment plates (Costar, catalogue number 7007). Cell seeding numbers were chosen based on growth curves to ensure linear growth throughout the experiment. Test compounds were added at different concentrations and the DMSO content was normalized to 0.3%. Cells were incubated for 8 days at 37° C. and 5% CO2. Spheroid like growth was measured in real-time by live-cell imaging (IncuCyteZOOM, Essenbio, 4× objective) acquiring images at day 8. Confluence (%) as a measure of spheroid size was determined using an integrated analysis tool.
In order to determine the effect of the test compounds over time, the confluence in each well as a measure of spheroid size, was calculated. Confluence of the highest dose of a reference compound was used as baseline for the LC (Low control) and the confluence of DMSO treated cells was used as 0% cytotoxicity (High Control, HC).
Absolute IC50 values were calculated as percent change in confluence as follows:
LC=Low Control: cells treated with e.g. 1 μM of the cytotoxic agent staurosporin, or e.g. cells treated with a high concentration of an alternative reference compound
GraphPad Prism (version 7.00) was used to calculate the IC50. Dose-response equation was used for the plot of % Effect vs Log 10 compound concentration with a variable slope and fixing the maximum to 100% and the minimum to 0%.

[1] = molecular target: T1, menin/MLL (terbium chelate-labeled menin, FITC-MBM1 peptide) (Homo sapiens, UniProt O00255, T541A); test: Menin/MLL homogenous time-resolved fluorescence (HTRF) assay; type: binding; conditions: 30 min incubation
T1 construct: Menin (a.a 1-610-6xhis tag)
T1 sequence (O00255 with tags, fused parts or gaps T541A): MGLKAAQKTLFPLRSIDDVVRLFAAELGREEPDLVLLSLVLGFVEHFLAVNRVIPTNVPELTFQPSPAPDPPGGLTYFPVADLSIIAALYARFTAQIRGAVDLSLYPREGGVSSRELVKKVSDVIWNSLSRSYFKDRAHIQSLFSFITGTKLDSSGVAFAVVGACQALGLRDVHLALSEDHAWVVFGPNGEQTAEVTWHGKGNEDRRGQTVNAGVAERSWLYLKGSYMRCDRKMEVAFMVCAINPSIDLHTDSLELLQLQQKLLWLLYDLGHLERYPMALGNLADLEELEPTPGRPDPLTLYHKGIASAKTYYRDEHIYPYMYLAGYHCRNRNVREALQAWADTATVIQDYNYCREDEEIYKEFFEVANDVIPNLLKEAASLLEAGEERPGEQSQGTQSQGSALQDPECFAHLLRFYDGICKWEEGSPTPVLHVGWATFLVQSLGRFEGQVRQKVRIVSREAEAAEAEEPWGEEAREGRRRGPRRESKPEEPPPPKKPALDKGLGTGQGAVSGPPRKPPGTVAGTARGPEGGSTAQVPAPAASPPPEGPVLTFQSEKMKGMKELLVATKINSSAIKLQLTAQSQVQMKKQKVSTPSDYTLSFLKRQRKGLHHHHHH
Experimental: 1) Menin/MLL Homogenous Time-Resolved Fluorescence (HTRF) Assay
To an untreated, white 384-well microtiter plate was added 40 nL 200× test compound in DMSO and 4 μL 2× terbium chelate-labeled menin (vide infra for preparation) in assay buffer (40 mM Tris.HCl, pH 7.5, 50 mM NaCl, 1 mM DTT (dithiothreitol) and 0.05% Pluronic F-127). After incubation of test compound and terbium chelate-labeled menin for 30 min at ambient temperature, 4 μL 2× FITC-MBM1 peptide (FITC-β-alanine-SARWRFPARPGT-NH2 (SEQ ID NO: 3)) (“FITC” means fluorescein isothiocyanate) in assay buffer was added, the microtiter plate centrifuged at 1000 rpm for 1 min and the assay mixtures incubated for 15 min at ambient temperature. The relative amount of menin FITC-MBM1 complex present in an assay mixture is determined by measuring the homogenous time-resolved fluorescence (HTRF) of the terbium/FITC donor/acceptor fluorophore pair using an EnVision microplate reader (ex. 337 nm/terbium em. 490 nm/FITC em. 520 nm) at ambient temperature. The degree of fluorescence resonance energy transfer (the HTRF value) is expressed as the ratio of the fluorescence emission intensities of the FITC and terbium fluorophores (F^em 520 nm/F^em 490 nm). The final concentrations of reagents in the binding assay are 200 pM terbium chelate-labeled menin, 75 nM FITC-MBM1 peptide and 0.5% DMSO in assay buffer. Dose-response titrations of test compounds are conducted using an 11 point, four-fold serial dilution scheme, starting typically at 10 μM.
Compound potencies were determined by first calculating % inhibition at each compound concentration according to equation 1:
% inhibition=((HC−LC)−(HTRF^compound−LC))/(HC−LC))*100 (Eqn 1)
Where LC and HC are the HTRF values of the assay in the presence or absence of a saturating concentration of a compound that competes with FITC-MBM1 for binding to menin, and HTRF^compound is the measured HTRF value in the presence of the test compound. HC and LC HTRF values represent an average of at least 10 replicates per plate.
% inhibition=Bottom+(Top−Bottom)/(1+10^((logIC50−log[cmpd])*h)) (Eqn 2)
Where Bottom and Top are the lower and upper asymptotes of the dose-response curve, respectively, IC50 is the concentration of compound that yields 50% inhibition of signal and h is the Hill coefficient. IC50 values below 0.1 nM in the HTRF assay were reported as 0.1 nM in the Table below (detection limit).
Preparation of Terbium cryptate labeling of Menin: Menin (a.a 1-610-6xhis tag (“6xhis tag” disclosed as SEQ ID NO: 2), 2.3 mg/mL in 20 mM Hepes (2-[4-(2-Hydroxyethyl)-1-piperazinyl]ethane sulfonic acid), 80 mM NaCl, 5 mM DTT (Dithiothreitol), pH 7.5) was labeled with terbium cryptate as follows. 200 μg of Menin was buffer exchanged into 1× Hepes buffer. 6.67 μM Menin was incubated with 8-fold molar excess NHS (N-hydroxysuccinimide)-terbium cryptate for 40 minutes at room temperature. Half of the labeled protein was purified away from free label by running the reaction over a NAP5 column with elution buffer (0.1 M Hepes, pH 7+0.1% BSA (bovine serum albumin)). The other half was eluted with 0.1 M phosphate buffered saline (PBS), pH7. 400 μl of eluent was collected for each, aliquoted and frozen at −80° C. The final concentration of terbium-labeled Menin protein was 115 μg/mL in Hepes buffer and 85 μg/mL in PBS buffer, respectively.

IC50 (MOLM14 cells) [nM] | IC50 [1] [nM] | SMILES
> 940 | 5 | CC(C)[C@H]([C@H]1C[C@@H](N2CCC3(CCO3)CC2)C1)N1CC2(CCN(c3ncnnc3Oc3ccc(F)cc3-c3cnncc3C3CC3)C2)C1 (single isomer, unassigned) [Compound 280a]
10 | 0.17 | CC(C)[C@@H]([C@H]1C[C@@H](N2CCC3(CCO3)CC2)C1)N1CC2(CCN(c3ncnnc3Oc3ccc(F)cc3-c3cnncc3C3CC3)C2)C1 (single isomer, unassigned) [Compound 281a]
83 | 0.31 | CC(C)[C@@H]([C@H]1C[C@H](N2CCC3(CCO3)CC2)C1)N1CC2(CCN(c3ncnnc3Oc3ccc(F)cc3-c3cnncc3C3CC3)C2)C1 (single isomer, unassigned) [Compound 281b]
280 | 2.4 | CO[C@H]1[C@@H]2CN([C@H]3C[C@@H]([C@H](C(C)C)N4CC5(CCN(c6ncnnc6Oc6ccc(F)cc6-c6cnncc6C6CC6)C5)C4)C3)C[C@@H]21 (single isomer, unassigned) [Compound 282a]
> 940 | 24.2 | CC(C)[C@@H]([C@H]1C[C@@H](NC(=O)C2CC2)C1)N1CC2(CCN(c3ncnnc3Oc3ccc(F)cc3-c3n[nH]c(=O)cc3C3CC3)C2)C1 (single isomer, unassigned) [Compound 310]
60 | 0.3 | CC(C)[C@H]([C@H]1C[C@@H](N2CC3(CNC(=O)O3)C2)C1)N1CC2(CCN(c3ncnnc3Oc3ccc(F)cc3-c3cncnc3C3CC3)C2)C1 (single isomer, unassigned) [Compound 317]
53 | 0.2 | CC(C)[C@@H]([C@H]1C[C@]2(COC(=O)N2)C1)N1CC2(CCN(c3ncnnc3Oc3ccc(F)cc3-c3cnncc3C3CC3)C2)C1 (single isomer, unassigned) [Compound 323]
33 | 0.1 | CC(C)[C@H]([C@H]1C[C@@H](N2CCC3(CNC(=O)O3)C2)C1)N1CC2(CCN(c3ncnnc3Oc3ccc(F)cc3-c3nnccc3C3CC3)C2)C1 (single isomer, unassigned) [Compound 328]
32 | 0.3 | CC(C)[C@H]([C@H]1C[C@@H](N2CCC3(CN(C)C(=O)O3)C2)C1)N1CC2(CCN(c3ncnnc3Oc3ccc(F)cc3-c3cncnc3C3CC3)C2)C1 (single isomer, unassigned) [Compound 329]
37 | 0.7 | CO[C@H]1CCN([C@H]2C[C@H](C(C(C)C)N3CC4(CCN(c5ncnnc5Oc5ccc(F)cc5-c5nnccc5C5CC5)C4)C3)C2)C1 (single isomer, unassigned) [Compound 332]
10 | 0.1 | CNC(=O)CCN(C)[C@H]1C[C@@H]([C@@H](C(C)C)N2CC3(CCN(c4ncnnc4Oc4ccc(F)cc4-c4cncnc4C4CC4)C3)C2)C1 (single isomer, unassigned) [Compound 350]
18 | 0.2 | CC(=O)N1CC2(C1)CN([C@H]1C[C@H]([C@H](C(C)C)N3CC4(CCN(c5ncnnc5Oc5ccc(F)cc5-c5cnc(C)cc5C5CC5)C4)C3)C1)C2 (single isomer, unassigned) [Compound 372]
140 | 0.19 | CC(=O)N1CC2(C1)CN([C@H]1C[C@H]([C@H](C(C)C)N3CC4(CCN(c5ncnnc5Oc5ccc(F)cc5-c5ncc(C)cc5C5CC5)C4)C3)C1)C2 (single isomer, unassigned) [Compound 374]
200 | 0.92 | CO[C@H]1CCN(C2CC(C(C(C)C)N3CC4(CCN(c5ncnnc5Oc5ccc(F)cc5-c5nnc(C)cc5C5CC5)C4)C3)C2)C1 (single isomer, unassigned) [Compound 399]
42 | 0.3 | CC(C)[C@H]([C@H]1C[C@@H](Nc2ccn3ccnc3c2)C1)N1CC2(CCN(c3ncnnc3Oc3ccc(F)cc3-c3cncnc3C3CC3)C2)C1 (single isomer, unassigned) [Compound 406]
220 | 0.14 | CC(C)[C@H]([C@H]1C[C@@H](Nc2ccnc(NS(C)(=O)=O)n2)C1)N1CC2(CCN(c3ncnnc3Oc3ccc(F)cc3-c3cncnc3C3CC3)C2)C1 (single isomer, unassigned) [Compound 408]
19 | 0.11 | CC(=O)Nc1cncc(N[C@H]2C[C@@H](C(C(C)C)N3CC4(CCN(c5ncnnc5Oc5ccc(F)cc5-c5cncnc5C5CC5)C4)C3)C2)c1 (single isomer, unassigned) [Compound 410]
10 | 0.15 | CC(C)C(C1CC(Nc2ncc3cn[nH]c3n2)C1)N1CC2(CCN(c3ncnnc3Oc3ccc(F)cc3-c3cncnc3C3CC3)C2)C1 (single isomer, unassigned) [Compound 411]
< 1.8 | 0.16 | CC(C)[C@H]([C@H]1C[C@@H](Nc2ccn3ccnc3n2)C1)N1CC2(CCN(c3ncnnc3Oc3ccc(F)cc3-c3cncnc3C3CC3)C2)C1 (single isomer, unassigned) [Compound 412]
